Article PMC9405451, “Uptake and Immunomodulatory Properties of Betanin, Vulgaxanthin I and Indicaxanthin towards Caco-2 Intestinal Cells” (Antioxidants, 2022)

How the values were obtained:
[1] = tested on: NQO-1; experiment: NQO-1 mRNA level (qPCR) in cytokine-stimulated Caco-2 cells; type: cell-based, human; settings: 5–80 μM, 6 h cytokine stimulation, vs SC
Description: (§1) Confluent Caco-2 cells were stimulated with a cocktail of cytokines comprised of tumour necrosis factor-α (TNF-α, 20 ng mL^−1), interleukin-1β (IL-1β, 40 ng mL^−1), interferon-γ (IFN-γ, 10 ng mL^−1) and lipopolysaccharide (LPS, 100 ng mL^−1) in the presence or absence of BET, VUL and IND treatments (5–80 µM) for 6 h. With the completion of incubations, cells were washed with cold DPBS and lysed with TRIsure reagent (Scientific Laboratory Supplies Ltd.). Total RNA of cell samples was extracted in accordance with the manufacturer’s instructions. After resuspending the RNA pellets in DEPC water, concentration and quality were determined using the NanoQuant plate (Tecan Spark 10M plate reader) at 260 and 280 nm. Reverse transcription of RNA was achieved using the iScript™ cDNA Synthesis Kit (Bio-Rad). Transcription levels of target genes—interleukin 6 (IL-6), IL-8, COX-2, iNOS, NADPH oxidase 1 (NOX-1), NAD(P)H quinone dehydrogenase 1 (NQO-1), heme oxygenase 1 (HO-1), glutamate-cysteine ligase catalytic subunit (GCLC), glutathione peroxidase 1 (GPX-1), glutathione S-transferase 1 (GSTA-1) and GSTP-1 were evaluated using SybrGreen based reagent (SensiFast SYBR Green, SLS Ltd., Galveston, TX, USA) via real-time qPCR using StepOne Plus Real-Time PCR System (Applied Biosystems, Nottingham, UK). […]

[2] = tested on: HO-1; experiment: HO-1 mRNA level (qPCR) in cytokine-stimulated Caco-2 cells; type: cell-based, human; settings: 5–80 μM, 6 h cytokine stimulation, vs SC
Description: as §1

[3] = tested on: Caco-2 cells; experiment: Intracellular ROS formation (DCFH2-DA) in H2O2-stressed Caco-2 cells; type: cell-based, human; settings: throughout concentration range 5–80 μM, 200 μM H2O2
Description: The generation of reactive oxygen species (ROS) within Caco-2 cells was determined in 96-well plates with the probe 2′,7′-dichlorodihydrofluorescein diacetate (DCFH2-DA), which is intracellularly deacetylated and oxidised to highly fluorescent 2′,7′-dichlorofluorescein (DCF). DCFH2-DA (30 µM) dissolved in PBS with 1% FBS (v/v) was applied to the confluent Caco-2 cells and incubated for 40 min at 37 °C. After washing, cells were treated with BET, VUL and IND (5–80 μM) for 1 h and subsequently stressed with H2O2 (200 μM) for a further 1 h. The plate was scanned using Tecan Spark 10M^TM with excitation λ of 485 nm and emission λ of 535 nm. Subsequently, the protein content of each well was determined by SRB assay. Briefly, the medium was removed and the cells were washed with PBS and submerged with 50 μL of 0.004% SRB solution (w/v) in 10% trichloroacetic acid (w/v). Cells were incubated at room temperature for 15 min and washed with 1% acetic acid (200 μL, v/v). After treating with Tris base (10 mM, 100 μL), cells were incubated for 5 min under shaking conditions. Finally, the plate was scanned using a Tecan plate reader with excitation λ of 540 nm and emission λ of 590 nm. Results of the ROS assay were normalised to the relative protein content for each well and expressed as the relative fluorescence intensity % (RFI) with respect to the value of positive control.

[4] = tested on: NOX-1; experiment: NOX-1 mRNA level (qPCR) in cytokine-stimulated Caco-2 cells; type: cell-based, human; settings: 5–80 μM, 6 h cytokine stimulation, maximum effect
Description: as §1

[5] = tested on: NQO-1; parameters: method as in PMID 23769299; settings: 20 μM, human hepatocytes; cited from earlier work
[6] = tested on: differentiated Caco-2 cells; experiment: Intracellular accumulation in differentiated Caco-2 cells; type: in vitro ADME, human; settings: 250 μM, 2 h incubation in HBSS
Description: For accumulation experiments, differentiated Caco-2 cells were incubated with purified BET, VUL and IND (250 μM) for 2 h in HBSS. The cell layer was washed twice with DPBS prior to being scraped into methanol, and pigments were subsequently extracted for LC-MS analysis. The total protein content of lysed cells was determined by bicinchoninic acid (BCA) assay (Pierce™ Thermo Scientific) in accordance with the manufacturer’s instructions.
(§2) Betalain compounds from the cell culture samples were quantified and identified by an ultra-high-speed LC fitted with a UV-Vis detector (SPD-20A), followed by a single quadrupole MS with an electrospray ionisation source (ESI) (Shimazu, 2020). HPLC separation was performed by a reverse phase C18 column (100 mm × 2.1 mm I.D., 3.5 μm) at the temperature of 35 °C. […] Betacyanins and betaxanthins were detected at the wavelengths of 536 nm and 486 nm, respectively, and their molecular weights were monitored by ESI-MS with positive ion mode. Compounds were identified based on the m/z values and quantified using standard curves with purified betalains, as shown in Supplemental Figure S1.

[7] = tested on: GSTA-1; experiment: GSTA-1 mRNA level (qPCR) in cytokine-stimulated Caco-2 cells; type: cell-based, human; settings: 5–80 μM, 6 h cytokine stimulation, vs SC
Description: as §1

[8] = EPR spin-trapping superoxide radical scavenging assay; settings: 20, 50 μM betalain
Description: (§3) Electron paramagnetic resonance (EPR) with spin trapping was used to determine superoxide and DPPH radical scavenging abilities of betalains reflected by the reduction of relative signal strength. EPR spectra were recorded 1 min after reagent mixing on a JEOL X320 spectrometer (X-band) in glass capillaries (0.8 mm ID). Superoxide assay was carried out by mixing the following solutions in 30% aqueous ethanol as solvent: hypoxanthine (1 mM, 55 μL), 5,5-dimethyl-1-pyrroline-N-oxide (DMPO) (1 M, 15 μL) and deferoxamine (10 mM, 10 μL). Individual betalains (200 and 500 μM) or solvent control were subsequently added in a volume of 10 μL. The reaction was initiated by the addition of 2 U mL^−1 xanthine oxidase (10 μL), achieving 20 and 50 μM as final concentrations of betalains in the mixture.
(§4) The 2,2-diphenyl-1-(2,4,6-trinitrophenyl)hydrazyl (DPPH) assay was conducted by mixing ethanol (40 μL) with 30% aqueous ethanol solutions of DPPH (100 μM, 50 μL) and purified betalains (200 μM, 10 μL), providing the working concentration of betalains as 20 μM. In both assays, acquisition of EPR spectra was started 1 min after reagent mixing. To improve the accuracy of measurements, the signal intensity for the superoxide assay was determined in triplicate by fitting the experimental spectra to the simulated superoxide-DMPO adduct spectra.

[9] = parameters: method as in PMID 18959410; settings: purified compound; cited from earlier work
[10] = tested on: IL-8; experiment: IL-8 mRNA level (qPCR) in cytokine-stimulated Caco-2 cells; type: cell-based, human; settings: 5–80 μM, 6 h cytokine stimulation, maximum effect
Description: (§5) Confluent Caco-2 cells were stimulated with a cocktail of cytokines comprised of tumour necrosis factor-α (TNF-α, 20 ng mL^−1), interleukin-1β (IL-1β, 40 ng mL^−1), interferon-γ (IFN-γ, 10 ng mL^−1) and lipopolysaccharide (LPS, 100 ng mL^−1) in the presence or absence of BET, VUL and IND treatments (5–80 µM) for 6 h. With the completion of incubations, cells were washed with cold DPBS and lysed with TRIsure reagent (Scientific Laboratory Supplies Ltd.). Total RNA of cell samples was extracted in accordance with the manufacturer’s instructions. After resuspending the RNA pellets in DEPC water, concentration and quality were determined using the NanoQuant plate (Tecan Spark 10M plate reader) at 260 and 280 nm. Reverse transcription of RNA was achieved using the iScript™ cDNA Synthesis Kit (Bio-Rad). Transcription levels of target genes—interleukin 6 (IL-6), IL-8, COX-2, iNOS, NADPH oxidase 1 (NOX-1), NAD(P)H quinone dehydrogenase 1 (NQO-1), heme oxygenase 1 (HO-1), glutamate-cysteine ligase catalytic subunit (GCLC), glutathione peroxidase 1 (GPX-1), glutathione S-transferase 1 (GSTA-1) and GSTP-1 were evaluated using SybrGreen based reagent (SensiFast SYBR Green, SLS Ltd., Galveston, TX, USA) via real-time qPCR using StepOne Plus Real-Time PCR System (Applied Biosystems, Nottingham, UK). Primers of target genes were designed and blasted using the NCBI database, whose PCR product sizes were confirmed by 2% agarose gel electrophoresis. The list of primer sequences used in the study is presented in Supplemental Table S1. The calculation of target gene levels was based upon the Livak (2^−ΔΔCT) method with normalisation to the housekeeping gene, β-actin [31].

[11] = EPR DPPH radical scavenging assay; settings: 20 μM betalain
Description: as §3, §4

[12] = tested on: COX-2; experiment: COX-2 mRNA level (qPCR) in cytokine-stimulated Caco-2 cells; type: cell-based, human; settings: 5–80 μM, 6 h cytokine stimulation, maximum effect
Description: as §1

[13] = tested on: GPX-1; experiment: GPX-1 mRNA level (qPCR) in cytokine-stimulated Caco-2 cells; type: cell-based, human; settings: 5–80 μM, 6 h cytokine stimulation, vs SC
Description: as §1

[14] = tested on: iNOS; experiment: iNOS mRNA level (qPCR) in cytokine-stimulated Caco-2 cells; type: cell-based, human; settings: 5–80 μM, 6 h cytokine stimulation, maximum effect
Description: as §1

[15] = tested on: differentiated Caco-2 cells; experiment: Trans-epithelial transport (AP-to-BL) across differentiated Caco-2 monolayer; type: in vitro ADME, human; settings: AP-to-BL
Description: (§6) Trans-epithelial transport of purified betalains (AP-to-BL) was investigated in differentiated Caco-2 cells in 12-well plate transwell inserts (PET membrane, 0.4 μm pore size, Sarstedt) at an initial density of 1 × 10^5 cells cm^−2. Complete medium was added in both apical (AP) and basolateral (BL) chambers and was replaced every 2–3 days. Cell membrane integrity was monitored weekly through measurement of trans-epithelial electrical resistance (TEER) across the growth area until full differentiation of the cells after 21 days. During the experiment, Hanks’ balanced salt solution (HBSS) in the apical compartment was adjusted to pH 6.5 with MES (2 mM), while basolateral pH remained at 7.5 [25]. Purified BET, VUL and IND (420–1000 μM) were supplied to the apical side of the membrane and incubated at 37 °C for up to 2 h. As a marker compound of paracellular transport, phenolsulfonaphtalein (5 mM) was also applied to parallel cell membranes in the apical chamber. The study also evaluated the permeability of compounds through the Caco-2 membrane with a loosened tight junction in parallel wells which was achieved by 5-min incubation of differentiated membrane in trypsin EDTA (0.05%, v/v). The basolateral solution was collected and replaced every 30 min until 2 h, under initial rate conditions. The betalain-containing solutions were processed and submitted to LC-MS analysis, while phenolsulfonaphtalein was quantified spectrophotometrically at λ of 430 nm. TEER values were monitored at the beginning and the end of the experiment to check the impact of compounds on monolayer integrity. The apparent permeability coefficients (Papp) were calculated as per Equation (1), where V = volume of basolateral solution, A = cell growth area, C0 = initial concentration of apical betalain and dC/dt = steady-state flux across the monolayer. (1) Papp=1/C0×A·V×dC/dt
as §2

[16] = as above; type: in vitro ADME, human; settings: human, Caco-2, 1 mM in AP chamber, apical pH 6.5, basolateral pH 7.5, read-out: Papp (apparent permeability coefficient), absorptive direction AP-to-BL
Description: as §6, §2

[17] = tested on: GSTM; parameters: method as in PMID 23769299; settings: 20 μM, human hepatocytes; cited from earlier work
[18] = tested on: IL-6; experiment: IL-6 mRNA level (qPCR) in cytokine-stimulated Caco-2 cells; type: cell-based, human; settings: 5–80 μM, 6 h cytokine stimulation, maximum effect
Description: as §5

[19] = tested on: GSTP-1; experiment: GSTP-1 mRNA level (qPCR) in cytokine-stimulated Caco-2 cells; type: cell-based, human; settings: 5–80 μM, 6 h cytokine stimulation, vs SC
Description: as §1

[20] = tested on: GCLC; experiment: GCLC mRNA level (qPCR) in cytokine-stimulated Caco-2 cells; type: cell-based, human; settings: 5–80 μM, 6 h cytokine stimulation, vs SC
Description: as §1

## O=C(O)C1=C/C(=C/C=[N+]2/c3cc(O)c(O[C@@H]4O[C@H](CO)[C@@H](O)[C@H](O)[C@H]4O)cc3C[C@H]2C(=O)[O-])C[C@@H](C(=O)O)N1 [BET, betanin]
[1]
  Upregulation of NQO-1 expression: < 24%
[2]
  Upregulation of HO-1 expression: < 24%
[3]
  Suppression of H2O2-stimulated ROS: < 64%
[4]
  Attenuation of NOX-1 mRNA levels: up to 34%
[5]
  Increase of NQO-1 expression in the baseline: ca. 60%
[6]
  Intracellular accumulation: 0.02 nmol per mg of protein
[7]
  Induction of GSTA-1 expression: < 51%
[8]
  Decrease in EPR signal intensity, superoxide assay: < 35%
[9]
  Loss along the digestion: up to 70%
[10]
  Downregulation of IL-8 expression vs cytokine control (SC): ≤ 39%
[11]
  Decrease in EPR signal intensity, DPPH assay: < 71%
[12]
  Attenuation of COX-2 mRNA levels: up to 34%
[13]
  Upregulation of GPX-1 expression: < 23%
[14]
  Reduction of iNOS mRNA levels: < 42%
[15]
  Proportion transported within 2 h of total amount applied: 1.0%
[16]
  Papp A→B at 2 h, 1 mM: 0.415 ×10⁻⁶ cm/s
[17]
  Increase of GSTM expression in the baseline: ~100%
[18]
  Downregulation of IL-6 expression vs cytokine control (SC): up to 50%
[19]
  Upregulation of GSTP-1 expression: < 24%
[20]
  Upregulation of GCLC expression: < 33%
